The source of these data is ChEMBL document CHEMBL6078724, “Discovery of the first examples of right open reading frame kinase 2 (RIOK2) molecular glue degraders” (Eur J Med Chem, 2025).

SMILES strings stand for the structures. Calls of active or inactive are those of the source. The rule behind the calls is not given here.

Series [1] concerns the target T1, E3 ubiquitin-protein ligase RNF126/Serine/threonine-protein kinase RIO2 (Homo sapiens, UniProt Q9BVS4+Q9BV68). The series is described as follows: Molecular glue degradation activity at RNF126/RIOK2 in human MOLT-4 cells assessed as induction protein degradation incubated for 12 hrs by immunoblot analysis. Format: cell-based.
Target sequence in this assay (Q9BVS4 whole entry): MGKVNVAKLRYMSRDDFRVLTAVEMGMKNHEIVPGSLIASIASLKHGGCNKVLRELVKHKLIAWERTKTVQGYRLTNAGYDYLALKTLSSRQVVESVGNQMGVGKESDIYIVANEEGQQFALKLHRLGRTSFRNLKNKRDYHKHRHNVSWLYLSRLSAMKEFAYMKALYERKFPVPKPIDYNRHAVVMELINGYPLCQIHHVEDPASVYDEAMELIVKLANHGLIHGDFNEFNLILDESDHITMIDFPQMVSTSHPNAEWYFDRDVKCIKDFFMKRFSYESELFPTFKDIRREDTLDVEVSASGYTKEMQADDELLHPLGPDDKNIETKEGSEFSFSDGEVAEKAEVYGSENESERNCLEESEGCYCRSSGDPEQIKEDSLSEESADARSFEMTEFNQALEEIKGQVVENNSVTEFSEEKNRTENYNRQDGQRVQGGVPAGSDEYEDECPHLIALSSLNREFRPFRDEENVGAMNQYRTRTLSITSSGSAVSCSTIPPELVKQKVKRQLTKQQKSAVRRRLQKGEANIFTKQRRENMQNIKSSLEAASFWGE
Target sequence in this assay (Q9BV68 whole entry): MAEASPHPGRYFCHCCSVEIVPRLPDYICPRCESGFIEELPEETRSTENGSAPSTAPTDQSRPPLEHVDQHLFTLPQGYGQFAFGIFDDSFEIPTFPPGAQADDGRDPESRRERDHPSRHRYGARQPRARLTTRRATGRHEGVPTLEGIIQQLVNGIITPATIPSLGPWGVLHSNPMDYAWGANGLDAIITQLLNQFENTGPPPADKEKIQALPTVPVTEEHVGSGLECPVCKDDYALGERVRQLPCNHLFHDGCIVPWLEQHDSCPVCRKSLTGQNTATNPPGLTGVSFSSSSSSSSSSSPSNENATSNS
Series [2] deals with T1, E3 ubiquitin-protein ligase RNF126/Serine/threonine-protein kinase RIO2. The series is described as follows: Molecular glue degradation activity at RNF126/RIOK2 in human MOLT-4 cells assessed as induction protein degradation incubated for 12 hrs by immunoblot analysis relative to control. Format: cell-based. Background: In western blotting, separated proteins are transferred to a membrane and probed.
Target sequence in this assay (Q9BV68 2-311 partner limits assumed): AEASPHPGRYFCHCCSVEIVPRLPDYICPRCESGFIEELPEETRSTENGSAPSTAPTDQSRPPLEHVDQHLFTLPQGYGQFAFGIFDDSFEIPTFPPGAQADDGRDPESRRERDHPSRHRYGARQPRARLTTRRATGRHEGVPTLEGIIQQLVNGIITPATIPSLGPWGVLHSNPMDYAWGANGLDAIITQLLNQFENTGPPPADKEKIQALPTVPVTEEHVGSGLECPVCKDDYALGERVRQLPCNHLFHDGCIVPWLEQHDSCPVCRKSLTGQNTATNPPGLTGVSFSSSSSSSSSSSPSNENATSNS
Target sequence in this assay (Q9BVS4 whole entry): as the sequence (Q9BVS4 whole entry) above

For the next series, the system named is U-937. The series is described as follows: Antiproliferative activity against human U-937 cells incubated for 72 hrs by CCK8 assay. Format: functional, cell-based. The note with it: U-937, 72 h. A general note: Tetrazolium dyes change colour on reduction, which living cells bring about.
Series [3] deals with MOLT-4. Kind of series: Antiproliferative activity against human MOLT-4 cells incubated for 72 hrs by CCK8 assay. The format is functional, cell-based. The note with it: MOLT-4, 72 h.
The next series deals with HL-60. Kind of series: Antiproliferative activity against human HL-60 cells incubated for 72 hrs by CCK8 assay. The format is functional, cell-based. The note with it: HL-60, 72 h.
The next series deals with K562. The series is described as follows: Antiproliferative activity against human K562 cells incubated for 72 hrs by CCK8 assay. The format is functional, cell-based. Particulars: K562, 72 h.
The test system of a further series is OCI-Ly3. Kind of series: Antiproliferative activity against human OCILY3 cells incubated for 72 hrs by CCK8 assay. The format is functional, cell-based. The note with it: OCI-Ly3, 72 h.
The next series has as its system ASPC1. The series is described as follows: Antiproliferative activity against human ASPC1 cells incubated for 72 hrs by CCK8 assay. The format is functional, cell-based. The note with it: ASPC1, 72 h.
In a further series the test system is A549. The series is described as follows: Antiproliferative activity against human A549 cells incubated for 72 hrs by CCK8 assay. Format: functional, cell-based. The note with it: A549, 72 h.
The next series deals with HeLa. Kind of series: Antiproliferative activity against human HeLa cells incubated for 72 hrs by CCK8 assay. Format: functional, cell-based.
A short description of series [4]: Antiproliferative activity against HEK293 cells incubated for 72 hrs by CCK8 assay. Format: toxicity, cell-based. Particulars: human.
A short description of series [5]: Antiproliferative activity against mouse NIH3T3 cells incubated for 72 hrs by CCK8 assay. Format: toxicity, cell-based.
Series [6] in a line: Antiproliferative activity against human MRC5 cells incubated for 72 hrs by CCK8 assay. Format: toxicity, cell-based.
Series [7] addresses T1, E3 ubiquitin-protein ligase RNF126/Serine/threonine-protein kinase RIO2. Kind of series: Molecular glue degradation activity at RNF126/RIOK2 in human MOLT-4 cells assessed as decrease in mTOR level at 500 nM incubated for 12 hrs by immunoblot analysis. Format: cell-based.
Target sequence in this assay (Q9BV68 2-311 partner limits assumed): as the sequence (Q9BV68 2-311 partner limits assumed) above
Target sequence in this assay (Q9BVS4 whole entry): as the sequence (Q9BVS4 whole entry) above
For series [8] the target is unchanged. Kind of series: Molecular glue degradation activity at RNF126/RIOK2 in human MOLT-4 cells assessed as decrease in AKT level at 500 nM incubated for 12 hrs by immunoblot analysis. The format is cell-based.
Target sequence in this assay (Q9BV68 2-311 partner limits assumed): as the sequence (Q9BV68 2-311 partner limits assumed) above
Target sequence in this assay (Q9BVS4 whole entry): as the sequence (Q9BVS4 whole entry) above
Series [9] relates to MOLT-4. The series is described as follows: Induction of cell cycle arrest in human MOLT-4 cells assessed as accumulation at G2/M phase at 900 nM incubated for 24 hrs by PI staining based flow cytometry relative to control. The format is functional. On the technique in general: In flow cytometry, cells or beads pass a laser one at a time.
Series [10] relates to MOLT-4. Kind of series: Induction of apoptosis in human MOLT-4 cells at 900 nM incubated for 48 hrs by Annexin V-FITC/PI staining based flow cytometry relative to control. Format: functional.
Series [11] addresses Serine/threonine-protein kinase RIO2 (Homo sapiens, UniProt Q9BVS4). Kind of series: Binding affinity to RIOK2 (unknown origin) assessed as dissociation constant.

Chain of Serine/threonine-protein kinase RIO2 (Q9BVS4 whole entry): as above

Usually DC50 stands for the concentration at which degradation of the target reaches its halfway point. By Emax is commonly meant the maximal effect, on the per cent scale that the assay sets. For `COc1ccc(-c2ccc3[nH]c(=O)c4nnn(-c5ccc(N6CCN(C(=O)/C=C/C(=O)c7ccc(C)cc7)CC6)c(C(F)(F)F)c5)c4c3c2)cn1`, the DC50 in series [1] amounted to 1.47 µM. In series [2], the Emax was 72.3%.

Regarding `COc1ccc(-c2ccc3[nH]c(=O)c4nnn(-c5ccc(N6CCN(C(=O)/C=C/C(=O)c7ccc(OC(F)(F)F)cc7)CC6)c(C(F)(F)F)c5)c4c3c2)cn1`, the DC50 in [1] came to 1.75 µM. Also, the maximal response (Emax) in [2] was determined as 84.5%.

For the molecule `COc1ccc(-c2ccc3[nH]c(=O)c4nnn(-c5ccc(N6CCN(C(=O)/C=C/C(=O)c7ccc(Br)cc7)CC6)c(C(F)(F)F)c5)c4c3c2)cn1`, the DC50 in series [1] was found to be 2.18 µM. In [2], the maximal response (Emax) is 70.1%.

Regarding `COc1ccc(-c2ccc3[nH]c(=O)c4nnn(-c5ccc(N6CCN(C(=O)/C=C/C(=O)c7ccc(OC)c(OC)c7)CC6)c(C(F)(F)F)c5)c4c3c2)cn1`, the DC50 in [1] was 1.95 µM. In [2], the Emax turned out to be 65%.

As to `COc1ccc(-c2ccc3[nH]c(=O)c4nnn(-c5ccc(N6CCN(C(=O)/C=C/c7ccc(C(F)(F)F)cc7)CC6)c(C(F)(F)F)c5)c4c3c2)cn1`, the half-maximal degradation concentration (DC50) in series [1] is greater than 10 µM.

One may read the IC50 as the midpoint of a concentration-inhibition curve. As to `COc1ccc(-c2ccc3[nH]c(=O)c4nnn(-c5ccc(N6CCNCC6)c(C(F)(F)F)c5)c4c3c2)cn1`, the IC50 came to 1.84 µM in the series with U-937; 1.26 µM in the series with MOLT-4 [3]; 1.21 µM in the series on HL-60; 2.03 µM in the series on K562; 0.52 µM in the series on OCI-Ly3; 2.43 µM in the series with ASPC1. The IC50 in the series on A549 stood at 2.55 µM; with HeLa, 1.23 µM. Further, the concentration for half-maximal inhibition (IC50) at 72 h in series [4] stood at 1.94 µM; in series [5], 2.84 µM; in [6], 1.31 µM. The result in series [7] and in series [8] was inactive. Besides, the values for the Activity with MOLT-4 [9] and in the series with MOLT-4 [10] were 29.84% and 8.03%, respectively.

On to `CCOc1ccc(C(=O)/C=C/C(=O)N2CCN(c3ccc(-n4nnc5c(=O)[nH]c6ccc(-c7ccc(OC)nc7)cc6c54)cc3C(F)(F)F)CC2)cc1`, for which, in series [1], the DC50 was determined as 1.28 µM. In addition, the Emax in series [2] was determined as 70.6%.

On to `C=CC(=O)N1CCN(c2ccc(-n3nnc4c(=O)[nH]c5ccc(-c6ccc(OC)nc6)cc5c43)cc2C(F)(F)F)CC1`, for which the half-maximal degradation concentration (DC50) in [1] turned out to be 4.31 µM. Besides, the Emax in series [2] stood at 81.4%.

Take `COc1ccc(C(=O)/C=C/C(=O)N2CCN(c3ccc(-n4nnc5c(=O)[nH]c6ccc(-c7ccc(OC)nc7)cc6c54)cc3C(F)(F)F)CC2)cc1`: the half-maximal degradation concentration (DC50) in [1] was determined as 0.69 µM. The Emax in series [2] was determined as 60.1%.

Consider `COc1ccc(-c2ccc3[nH]c(=O)c4nnn(-c5ccc(N6CCN(C(=O)/C=C/C(=O)c7ccc(Cl)cc7)CC6)c(C(F)(F)F)c5)c4c3c2)cn1`, for which, in series [1], the half-maximal degradation concentration (DC50) worked out at 1.54 µM. In addition, in [2], the maximal response (Emax) stood at 75.1%.

For `COc1cccc(C(=O)/C=C/C(=O)N2CCN(c3ccc(-n4nnc5c(=O)[nH]c6ccc(-c7ccc(OC)nc7)cc6c54)cc3C(F)(F)F)CC2)c1`, the DC50 in [1] stood at 1.05 µM. Also, the maximal effect (Emax) in series [2] amounted to 68.4%.

Take `COc1ccc(-c2ccc3[nH]c(=O)c4nnn(-c5ccc(N6CCN(C(=O)/C=C/C(=O)c7ccccc7OC)CC6)c(C(F)(F)F)c5)c4c3c2)cn1`: the DC50 in series [1] was 0.79 µM. The maximal response (Emax) in series [2] is 74.1%.

The Kd is the concentration at which binding is half-saturated. Regarding `COc1ccc2cc([C@H](C)C(=O)Nc3cc(C)ccn3)ccc2c1`, in series [11], the Kd stood at 0.52 µM.

With `COc1ccc(-c2ccc3[nH]c(=O)c4nnn(-c5ccc(N6CCN(C(=O)/C=C/C(=O)c7ccc(F)c(F)c7)CC6)c(C(F)(F)F)c5)c4c3c2)cn1`, the 50% degradation concentration (DC50) in series [1] is 0.98 µM. For the same molecule, the Emax in [2] stood at 77.3%.

Regarding `COc1ccc(-c2ccc3[nH]c(=O)c4nnn(-c5ccc(N6CCN(C(=O)/C=C/C(=O)c7ccccc7F)CC6)c(C(F)(F)F)c5)c4c3c2)cn1`, the DC50 in [1] worked out at 3.65 µM. For the same molecule, the maximum response (Emax) in series [2] was determined as 62.8%.

`COc1ccc(-c2ccc3[nH]c(=O)c4nnn(-c5ccc(N6CCN(C(=O)/C=C/C(=O)c7ccc(OC(F)F)cc7)CC6)c(C(F)(F)F)c5)c4c3c2)cn1`: in series [1], the DC50 is 1.18 µM. The Emax in series [2] worked out at 68.9%.

Consider `COc1ccc(-c2ccc3[nH]c(=O)c4nnn(-c5ccc(N6CCN(C(=O)C7=CCCC7)CC6)c(C(F)(F)F)c5)c4c3c2)cn1`, for which the DC50 in series [1] was found to be 2.14 µM. Moreover, the Emax in [2] stood at 82.2%.

Regarding `COc1ccc(-c2ccc3[nH]c(=O)c4nnn(-c5ccc(N6CCN(C(=O)/C=C/C(=O)c7ccc(OC(C)C)cc7)CC6)c(C(F)(F)F)c5)c4c3c2)cn1`, the DC50 in series [1] was determined as 1.07 µM. The Emax in series [2] was determined as 66.1%.

Regarding `COc1ccc(/C=C/C(=O)N2CCN(c3ccc(-n4nnc5c(=O)[nH]c6ccc(-c7ccc(OC)nc7)cc6c54)cc3C(F)(F)F)CC2)cc1`, the 50% degradation concentration (DC50) in [1] was greater than 10 µM.

As to `COc1ccc(-c2ccc3[nH]c(=O)c4nnn(-c5ccc(N6CCN(C(=O)/C=C/C(=O)c7ccc([N+](=O)[O-])cc7)CC6)c(C(F)(F)F)c5)c4c3c2)cn1`, the DC50 in [1] came to 3.8 µM. Moreover, the maximal effect (Emax) in [2] worked out at 68.1%.

With `COc1ccc(-c2ccc3[nH]c(=O)c4nnn(-c5ccc(N6CCN(C(=O)CCC(=O)c7ccc(F)cc7)CC6)c(C(F)(F)F)c5)c4c3c2)cn1`, in [1], the half-maximal degradation concentration (DC50) is greater than 10 µM.

As for `COc1ccc(-c2ccc3[nH]c(=O)c4nnn(-c5ccc(N6CCN(C(=O)/C=C/C(=O)c7ccccc7)CC6)c(C(F)(F)F)c5)c4c3c2)cn1`, in series [1], the 50% degradation concentration (DC50) stood at 1.1 µM. Also, in series [2], the Emax turned out to be 82.2%.

For `COc1ccc(-c2ccc3[nH]c(=O)c4nnn(-c5ccc(N6CCN(C(=O)/C=C/C(=O)c7ccc(C(F)(F)F)cc7)CC6)c(C(F)(F)F)c5)c4c3c2)cn1`, in [1], the DC50 is 1.03 µM. Moreover, in series [2], the Emax is 84.6%.
